Columns and labels:
Assay type in all cases: in vivo
[1] = system: Monochoria vaginalis; assay: Test Example 1: herbicidal activity, application before weed generation in submerged conditions (symbol C); conditions: application herbicide amount 320 g/ha
Summary of the method: (§1)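 Flooded alluvial soil (4 cm water) was mixed-sown with the three weed species, and 2.5-leaf rice seedlings were transplanted. On sowing day, a water-diluted emulsion at a predetermined rate was applied to the water surface. After 3 weeks in a 25–30 °C greenhouse, effect was scored 0–5.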

[2] = system: Cyperus difformis; assay: Test Example 3: herbicidal effect by foliage application, Wagner pot (symbol E); conditions: application herbicide amount 320 g/ha
Summary of the method: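 Rating at 3 weeks post-spray, by defined criteria. Treatment: emulsion diluted with water to a predetermined amount, applied evenly to foliage of 14-day-old plants raised in alluvial soil flooded 0.1–0.5 cm deep at 25–30 °C, rice co-sown.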

[3] = system: Lolium multiflorum Lam.; assay: Test Example 5: herbicidal effect by foliage application, plastic box (symbol K); conditions: 320 g/ha, 3 weeks after application
Summary of the method: (§2)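 After sowing into sterilized diluvial soil and growing two weeks under glass at 25° C. to 30° C., seedlings receive a uniform foliar spray of diluted emulsion. Damage is judged visually three weeks on.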

[4] = system: Scirpus juncoides; assay: Test Example 1: herbicidal activity, application before weed generation in submerged conditions (symbol B); conditions: application herbicide amount 320 g/ha
Summary of the method: as §1

[5] = system: rapeseed; assay: Test Example 4: effect on crop by soil treatment (symbol g); conditions: for g (rapeseed) effect on crop grade: application herbicide amount 320 g/ha; for g: rapeseed, effect grade on crop: 320 g/ha
Summary of the method: (§3)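 The test used sterilized diluvial soil. Seed was set down in spots and overlaid with about 1.5 cm of soil before growth in a greenhouse kept at 25° C. to 30° C.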

[6] = system: beet; assay: Test Example 4: effect on crop by soil treatment (symbol f); conditions: for f (beet) effect on crop grade: application herbicide amount 320 g/ha; for f: beet, effect grade on crop: 320 g/ha
Summary of the method: as §3

[7] = system: corn; assay: Test Example 4: effect on crop by soil treatment (symbol c); conditions: for c (corn) effect on crop grade: application herbicide amount 320 g/ha; for c: corn, effect grade on crop: 320 g/ha
Summary of the method: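 Steps: fill box with sterilized diluvial soil; sow seed spot-like; cover with ~1.5 cm soil; grow in greenhouse (25° C. to 30° C.).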

[8] = system: Setaria viridis; assay: Test Example 5: herbicidal effect by foliage application, plastic box (symbol G); conditions: 320 g/ha, 3 weeks after application
Summary of the method: as §2

[9] = system: wheat; assay: Test Example 5: effect on crop by foliage application, plastic box (symbol e); conditions: 320 g/ha, 3 weeks after application
Summary of the method: (§4)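 Diluvial soil, sterilized and boxed (21 × 13 × 7 cm), received spot-sown seed covered by about 1.5 cm soil; plants were then greenhouse-grown at 25–30° C.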

[10] = system: beet; assay: Test Example 5: effect on crop by foliage application, plastic box (symbol f); conditions: 320 g/ha, 3 weeks after application
Summary of the method: as §4

[11] = system: rapeseed; assay: Test Example 5: effect on crop by foliage application, plastic box (symbol g); conditions: 320 g/ha, 3 weeks after application
Summary of the method: as §4

[12] = system: Galium spurium; assay: Test Example 5: herbicidal effect by foliage application, plastic box (symbol Q); conditions: 320 g/ha, 3 weeks after application
Summary of the method: as §2

[13] = system: Amaranthus retroflexus; assay: Test Example 4: herbicidal effect by soil treatment (symbol N); conditions: for N (Amaranthus retroflexus) herbicidal effect grade: application herbicide amount 320 g/ha; for N: Amaranthus retroflexus, herbicidal effect grade: 320 g/ha
Summary of the method: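 Seeds were sown in sterilized diluvial soil, covered with about 1.5 cm of soil, and the soil surface was sprayed with a water-diluted emulsion of the compound at a predetermined rate. Plants grew in a greenhouse at 25° C. to 30° C.; effects were scored visually 3 weeks after application.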

[14] = system: Apera spica-venti; assay: Test Example 5: herbicidal effect by foliage application, plastic box (symbol L); conditions: 320 g/ha, 3 weeks after application
Summary of the method: as §2

| Structure (SMILES) | Herbicidal effect grade, C: Monochoria vaginalis [1] | herbicidal effect on E, grade 0-5 [2] | K: Lolium multiflorum Lam., herbicidal effect grade [3] | Herbicidal effect grade, B: Scirpus juncoides [4] | g (rapeseed) effect on crop grade [5] | f (beet) effect on crop grade [6] | c (corn) effect on crop grade [7] | G: Setaria viridis, herbicidal effect grade [8] | e: wheat, effect on crop grade [9] | f: beet, effect on crop grade [10] | g: rapeseed, effect on crop grade [11] | Q: Galium spurium, herbicidal effect grade [12] | N (Amaranthus retroflexus) herbicidal effect grade [13] | L: Apera spica-venti, herbicidal effect grade [14] | K: Lolium multiflorum Lam., herbicidal effect (criteria 0-5) [3] | g: rapeseed, effect grade on crop [5] | f: beet, effect grade on crop [6] | c: corn, effect grade on crop [7] | G: Setaria viridis, herbicidal effect (criteria 0-5) [8] | e: wheat, effect on crop (criteria 0-5) [9] | other results |
| --- | --- | --- | --- | --- | --- | --- | --- | --- | --- | --- | --- | --- | --- | --- | --- | --- | --- | --- | --- | --- | --- |
| CON=C(C)CC1CC(OC(=O)C(C)(C)C)=C(c2c(C)cc(C)cc2C)C1=O (stereo not shown) [1-004, 2-mesityl-4-{2-(methoxyimino)propyl}-3-oxocyclopent-1-en-1-yl pivalate] | 4 (Herbicidal ratio of 70% or higher and lower than 90%) | 5 (Herbicidal ratio of 90% or more (almost completely withered)) | 5 (Herbicidal ratio of 90% or more (almost completely withered)) | 5 (Herbicidal ratio of 90% or more (almost completely withered)) | 4 (Herbicidal ratio of 70% or higher and lower than 90%) | 4 (Herbicidal ratio of 70% or higher and lower than 90%) | 4 (Herbicidal ratio of 70% or higher and lower than 90%) | 5 (Herbicidal ratio of 90% or more (almost completely withered)) | 5 (Herbicidal ratio of 90% or more (almost completely withered)) | 3 (Herbicidal ratio of 40% or higher and lower than 70%) | 4 (Herbicidal ratio of 70% or higher and lower than 90%) | 3 (Herbicidal ratio of 40% or higher and lower than 70%) | 5 (Herbicidal ratio of 90% or more (almost completely withered)) | 5 (Herbicidal ratio of 90% or more (almost completely withered)) | – | – | – | – | – | – | – |
| CON=C(C)CC1CC(OC(C)=O)=C(c2c(C)cc(C)cc2C)C1=O (stereo not shown) [1-005] | 5 (Herbicidal ratio of 90% or more (almost completely withered)) | 5 (Herbicidal ratio of 90% or more (almost completely withered)) | 5 (Herbicidal ratio of 90% or more (almost completely withered)) | 5 (Herbicidal ratio of 90% or more (almost completely withered)) | 4 (Herbicidal ratio of 70% or higher and lower than 90%) | 4 (Herbicidal ratio of 70% or higher and lower than 90%) | 4 (Herbicidal ratio of 70% or higher and lower than 90%) | 5 (Herbicidal ratio of 90% or more (almost completely withered)) | 5 (Herbicidal ratio of 90% or more (almost completely withered)) | 3 (Herbicidal ratio of 40% or higher and lower than 70%) | 4 (Herbicidal ratio of 70% or higher and lower than 90%) | 4 (Herbicidal ratio of 70% or higher and lower than 90%) | 5 (Herbicidal ratio of 90% or more (almost completely withered)) | 5 (Herbicidal ratio of 90% or more (almost completely withered)) | – | – | – | – | – | – | – |
| CON=C(C)CC1CC(OS(C)(=O)=O)=C(c2c(C)cc(C)cc2C)C1=O (stereo not shown) [1-006] | 3 (Herbicidal ratio of 40% or higher and lower than 70%) | 5 (Herbicidal ratio of 90% or more (almost completely withered)) | 5 (Herbicidal ratio of 90% or more (almost completely withered)) | 3 (Herbicidal ratio of 40% or higher and lower than 70%) | 0 (Herbicidal ratio of 5% or lower (almost no effect)) | 0 (Herbicidal ratio of 5% or lower (almost no effect)) | 1 (Herbicidal ratio of 5% or higher and lower than 20%) | 5 (Herbicidal ratio of 90% or more (almost completely withered)) | 3 (Herbicidal ratio of 40% or higher and lower than 70%) | 0 (Herbicidal ratio of 5% or lower (almost no effect)) | 3 (Herbicidal ratio of 40% or higher and lower than 70%) | 0 (Herbicidal ratio of 5% or lower (almost no effect)) | 4 (Herbicidal ratio of 70% or higher and lower than 90%) | 5 (Herbicidal ratio of 90% or more (almost completely withered)) | – | – | – | – | – | – | – |
| CON=C(C)CC1CC(OC(=O)C(CSC)=NOC)=C(c2c(C)cc(C)cc2C)C1=O (stereo not shown) [1-098] | 4 (Herbicidal ratio of 70% or higher and lower than 90%) | 5 (Herbicidal ratio of 90% or more (almost completely withered)) | – | 5 (Herbicidal ratio of 90% or more (almost completely withered)) | – | – | – | – | – | – | – | – | – | – | 5 (Herbicidal ratio of 90% or more (almost completely withered)) | 5 (Herbicidal ratio of 90% or more (almost completely withered)) | 0 (Herbicidal ratio of 5% or lower (almost no effect)) | 5 (Herbicidal ratio of 90% or more (almost completely withered)) | 5 (Herbicidal ratio of 90% or more (almost completely withered)) | 5 (Herbicidal ratio of 90% or more (almost completely withered)) | f: beet, effect on crop (criteria 0-5) [10]: 1 (Herbicidal ratio of 5% or higher and lower than 20%); g: rapeseed, effect on crop (criteria 0-5) [11]: 5 (Herbicidal ratio of 90% or more (almost completely withered)); Q: Galium spurium, herbicidal effect (criteria 0-5) [12]: 0 (Herbicidal ratio of 5% or lower (almost no effect)); N: Amaranthus retroflexus, herbicidal effect grade [13]: 4 (Herbicidal ratio of 70% or higher and lower than 90%); L: Apera spica-venti, herbicidal effect (criteria 0-5) [14]: 5 (Herbicidal ratio of 90% or more (almost completely withered)) |
| CON=C(C)CC1CC(OC(=O)c2nsc(Cl)c2Cl)=C(c2c(C)cc(C)cc2C)C1=O (stereo not shown) [1-099] | 2 (Herbicidal ratio of 20% or higher and lower than 40%) | 5 (Herbicidal ratio of 90% or more (almost completely withered)) | – | 4 (Herbicidal ratio of 70% or higher and lower than 90%) | – | – | – | – | – | – | – | – | – | – | 5 (Herbicidal ratio of 90% or more (almost completely withered)) | 5 (Herbicidal ratio of 90% or more (almost completely withered)) | 2 (Herbicidal ratio of 20% or higher and lower than 40%) | 5 (Herbicidal ratio of 90% or more (almost completely withered)) | 5 (Herbicidal ratio of 90% or more (almost completely withered)) | 5 (Herbicidal ratio of 90% or more (almost completely withered)) | f: beet, effect on crop (criteria 0-5) [10]: 1 (Herbicidal ratio of 5% or higher and lower than 20%); g: rapeseed, effect on crop (criteria 0-5) [11]: 5 (Herbicidal ratio of 90% or more (almost completely withered)); Q: Galium spurium, herbicidal effect (criteria 0-5) [12]: 3 (Herbicidal ratio of 40% or higher and lower than 70%); N: Amaranthus retroflexus, herbicidal effect grade [13]: 3 (Herbicidal ratio of 40% or higher and lower than 70%); L: Apera spica-venti, herbicidal effect (criteria 0-5) [14]: 5 (Herbicidal ratio of 90% or more (almost completely withered)) |
